Data reported in patent US20160175308A1, “THERAPEUTIC AGENTS FOR MODULATING THYMIC FUNCTION AND/OR GROWTH AND/OR TREATING VARIOUS DISORDERS” (UCL BUSINESS PLC, priority 2013, published 2016).

How the values were obtained:
Type in all cases: in vivo, mouse
[1] = tested on: C57/BI6N wildtype mice; test: Lapatinib treatment of geriatric mice: thymus size/weight; conditions: 18 month old mice, 2.5 mg/day lapatinib oral gavage 5x/week for 5 weeks vs DMSO control, n=10/group, p<0.05
[2] = tested on: C57/BI6N wildtype mice; test: Lapatinib treatment of geriatric mice: thymus histology and BrdU immunohistochemistry; conditions: lapatinib vs control
Experimental: Eighteen month old C57/BI6N wildtype mice used in Lapatinib studies were purchased from Charles River Laboratories (UK). All mice were housed on a 12 hour light/dark cycle, in individually ventilated cages with access to standard rodent diet (Harlan, UK) and tap water ad libitum. Mice were euthanized by intraperitoneal injection of 0.2 mL sodium pentobarbital (Euthatal, Merial Animal Health, UK).
(§1) Dox was administered ad libitum in a foil-wrapped standard drinking bottle; fresh Dox was given every 48 hours. 300 mg Lapatinib (#J62401, Alfa Aesar, USA) was prepared in 12 mL DMSO (#472301, Sigma, UK) at a final concentration of 25 mg/mL. Mice were given 2.5 mg (100 µL) Lapatinib or an equivalent dose of DMSO alone 5 times per week for 4 weeks by oral gavage. One hour prior to euthanasia all mice for subsequent histological analysis were injected with 150 μL of 10 mg/mL BrdU solution (Invitrogen, UK) to label proliferating cells.
All cell suspensions (thymus, lymph node, blood) were diluted to 1 million cells/mL for antibody staining and flow cytometry analysis. Antibodies for flow cytometry analysis were as follows: CD3-FITC (17a2, Invitrogen, UK), CD4-PE (I3t4, BD Pharmingen, UK), CD8a-Q605 (53-6.7, eBioscience, UK), CD19-A421 (6D5, Biolegend, UK), CD11b-A421 (eBioscience, UK), Ter119-A421 (TER119, eBioscience, UK), CD47-APC780 (1M7, eBioscience, UK), CD25-A660 (7D4, eBioscience, UK), Nk1.1-APC780 (PK136, eBioscience, UK), NkP46-a660 (29a1.4, eBioscience, UK). All antibodies were diluted to 2 μL/10̂6 cells in 1 mL final volume; unstained and single antibody stained controls were used to set all voltage and gate compensations. Antibody staining was for 30 minutes at 4 degrees Celsius, after which time cells were centrifuged at 1250 rpm for 5 minutes and cell pellets resuspended in 1 mL RPMI 1640. All flow cytometry analysis was performed on either an LSR2 or LSR Fortessa flow cytometry system. A minimum of 10,000 events was collected for each analysis (phenotype, T cell developmental stage, peripheral blood and lymph node cell analysis). […]

[3] = tested on: C57/BI6N wildtype mice; test: Lapatinib treatment of elderly mice: thymus cell counts and flow cytometry of T lymphocyte populations; conditions: n=5/group
Experimental: […] All mice were housed on a 12 hour light/dark cycle, in individually ventilated cages with access to standard rodent diet (Harlan, UK) and tap water ad libitum. Mice were euthanized by intraperitoneal injection of 0.2 mL sodium pentobarbital (Euthatal, Merial Animal Health, UK).
as §1
Thymus and lymph nodes were prepared for flow cytometry by incubation in a 2 mL solution of RPMI […] (Invitrogen, UK) containing Liberase TL (0.3 mg/mL; Roche, Germany) plus DNAse I (0.2 mg/ml, Roche, Germany) for 30 minutes at 37 degrees Celsius. Thymus and lymph node tissue was then macerated through a […] filter (BD, USA) and enzymes inactivated by further washing with 30 mL PBS (Invitrogen, UK) plus 5 mM EDTA (Sigma, UK). This single cell suspension was centrifuged for 5 minutes at 1250 rpm, the supernatant removed, and the cell pellet resuspended in 3 mL RPMI 1640 (lymph nodes) or 5 mL RPMI 1640 (thymus). Total cell counts were obtained using a Millicell automated hematocytometer. Blood cells were prepared for flow cytometry by direct blood collection from the descending aorta in a capillary Microvette tube containing EDTA (CB 300 K2E, Sarstedt, Germany), elimination of red blood cells using lysis buffer (R7757, Sigma, UK) and dilution in 30 mL RPMI 1640. Blood cells were then pelleted by centrifugation as above and resuspended in 20 mL RPMI 1640 and cell counts obtained using a Millicell automated hematocytometer.
All cell suspensions (thymus, lymph node, blood) were diluted to 1 million cells/mL for antibody staining and flow cytometry analysis. Antibodies for flow cytometry analysis were as follows: CD3-FITC (17a2, Invitrogen, UK), CD4-PE (I3t4, BD Pharmingen, UK), CD8a-Q605 (53-6.7, eBioscience, UK), CD19-A421 (6D5, Biolegend, UK), CD11b-A421 (eBioscience, UK), Ter119-A421 (TER119, eBioscience, UK), CD47-APC780 (1M7, eBioscience, UK), CD25-A660 (7D4, eBioscience, UK), Nk1.1-APC780 (PK136, eBioscience, UK), NkP46-a660 (29a1.4, eBioscience, UK). All antibodies were diluted to 2 μL/10̂6 cells in 1 mL final volume; unstained and single antibody stained controls were used to set all voltage and gate compensations. Antibody staining was for 30 minutes at 4 degrees Celsius, after which time cells were centrifuged at 1250 rpm for 5 minutes and cell pellets resuspended in 1 mL RPMI 1640. All flow cytometry analysis was performed on either an LSR2 or LSR Fortessa flow cytometry system. A minimum of 10,000 events was collected for each analysis (phenotype, T cell developmental stage, peripheral blood and lymph node cell analysis). All experiments represent at least an n=4 for each condition and all analyses were done using FlowJo software. Thymus tissue sections were prepared for BrdU immunohistochemistry by dewaxing using an automated tissue staining system (TissueTek), blocking for 1 hour at room temperature in blocking solution (PBS containing 10% fetal bovine serum (10270-106, Invitrogen, UK) plus fish skin gelatin (G7765, Sigma, UK)). A BrdU primary antibody (rat, Covance, UK) was diluted in blocking solution and slides were incubated overnight in this antibody solution at 4 degrees Celsius. Slides were then washed in PBS and an anti-rat Alexa 555 secondary antibody (Invitrogen, UK) was applied in blocking solution for 3 hours at room temperature, washed, and slides coverslipped using Mowiol mounting media.

[4] = 15-18 month old mice vs DMSO treated controls
[5] = 15 month old mice, CD4/CD8/lineage negative thymocytes, vs DMSO

Structure (SMILES): CS(=O)(=O)CCNCc1ccc(-c2ccc3ncnc(Nc4ccc(OCc5cccc(F)c5)c(Cl)c4)c3c2)o1 [Lapatinib, N-[3-chloro-4-[(3-fluorophenyl)methoxy]phenyl]-6-[5-[(2-methylsulfonylethylamino)methyl]-2-furyl]quinazolin-4-amine]
- thymus size / thymus weight [1]: increase thymus weight
- thymus size / thymus weight ([1]; listed as lapatinib): increases thymus size
- BrdU cell abundance (thymocyte proliferation) ([2]; BrdU staining, n=5/treatment type, p<0.05): statistically significant increase in thymocyte proliferation
- thymus histological appearance (cortico-medullary boundaries) ([2]; H&E sections): restored thymic cortico-medullary boundaries and improved overall thymus histological appearance
- thymus involution ([2]; elderly mice): reverses thymus involution
- CD4 T cell production [3, 4]: trend towards increased
- CD8 T cell production [3, 4]: trend towards increased
- DN-T T cell production [3, 4]: trend towards increased
- production of immature (double positive, DP-T) T lymphocytes [3, 4]: increases production
- thymus cell abundance [3, 4]: increased thymus cell abundance
- DN1 (CD44+/CD25−) immature T cell abundance [3, 5]: significantly reduced
- DN2 (CD44+/CD25+) immature T cell abundance [3, 5]: significantly reduced
- DN4 (CD44/CD25 negative) cell abundance [3, 5]: increased
